Data: patent US10717716B2, “1,3,4-oxadiazole derivative compounds as histone deacetylase 6 inhibitor, and the pharmaceutical composition comprising the same” (Chong Kun Dang Pharmaceutical Corp., priority 2015, dated 2020)

Target: T1, human recombinant HDAC6 (Homo sapiens, UniProt Q9UBN7)
T1 construct: purchased Calbiochem 382180
T1 sequence (Q9UBN7 1-1215): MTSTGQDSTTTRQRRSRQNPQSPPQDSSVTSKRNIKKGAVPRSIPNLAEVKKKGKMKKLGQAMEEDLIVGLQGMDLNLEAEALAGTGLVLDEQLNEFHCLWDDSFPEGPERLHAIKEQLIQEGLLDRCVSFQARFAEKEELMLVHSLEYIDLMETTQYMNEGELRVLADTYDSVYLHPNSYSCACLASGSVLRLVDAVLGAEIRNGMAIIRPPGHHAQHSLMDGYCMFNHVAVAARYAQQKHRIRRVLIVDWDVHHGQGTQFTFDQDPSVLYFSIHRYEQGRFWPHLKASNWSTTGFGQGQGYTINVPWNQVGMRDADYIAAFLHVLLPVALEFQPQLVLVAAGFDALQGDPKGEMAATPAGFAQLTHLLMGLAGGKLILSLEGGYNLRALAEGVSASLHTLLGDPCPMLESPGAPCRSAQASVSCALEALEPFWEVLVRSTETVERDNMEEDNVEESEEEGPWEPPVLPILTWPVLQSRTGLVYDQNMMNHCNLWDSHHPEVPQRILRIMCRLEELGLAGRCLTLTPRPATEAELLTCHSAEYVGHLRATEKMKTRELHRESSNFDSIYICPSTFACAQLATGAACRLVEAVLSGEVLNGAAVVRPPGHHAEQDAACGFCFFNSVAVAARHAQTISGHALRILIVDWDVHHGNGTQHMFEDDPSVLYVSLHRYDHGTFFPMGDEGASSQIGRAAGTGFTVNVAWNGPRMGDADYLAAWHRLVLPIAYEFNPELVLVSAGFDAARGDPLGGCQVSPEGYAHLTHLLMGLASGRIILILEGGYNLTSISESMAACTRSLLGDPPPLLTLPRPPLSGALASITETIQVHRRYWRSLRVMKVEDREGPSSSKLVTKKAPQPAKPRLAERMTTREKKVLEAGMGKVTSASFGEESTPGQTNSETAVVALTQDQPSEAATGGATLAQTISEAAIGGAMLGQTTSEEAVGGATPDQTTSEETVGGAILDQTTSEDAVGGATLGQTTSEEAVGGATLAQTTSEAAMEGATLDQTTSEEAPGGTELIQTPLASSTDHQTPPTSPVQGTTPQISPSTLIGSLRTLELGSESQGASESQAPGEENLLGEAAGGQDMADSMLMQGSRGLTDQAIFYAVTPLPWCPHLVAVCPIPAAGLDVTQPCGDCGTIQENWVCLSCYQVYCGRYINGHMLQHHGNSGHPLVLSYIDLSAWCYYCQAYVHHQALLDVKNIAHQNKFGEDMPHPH
Assay: HDAC6 enzyme activity inhibition assay (HDAC Fluorimetric Drug Discovery Kit)
Assay type: biochemical
Conditions: for HDAC6 selectivity (fold): HDAC6 over HDAC1; for IC50: human recombinant HDAC6, same protocol as HDAC1, read-out: HDAC6
Protocol: In order to examine the HDAC6 selectivity of the compounds of formula I of the present invention by HDAC1 and HDAC6 enzymatic activity inhibition assays, an experiment was performed using a conventional substance as a control.
HDAC enzyme activity was measured using a HDAC Fluorimetric Drug Discovery Kit (BML-AK511, 516, Enzo Life Science). For the HDAC1 enzyme activity test, human recombinant HDAC1 (BML-SE456) was used as an enzyme source, and Fluor de Lys®-“SIRT1 (BNL-KI177) was used as a substrate. A 5-fold dilution of the compound was seeded into a 96-well plate, and then 0.3 μg of the enzyme and 10 μM of the substrate were added to each well of the plate and allowed to react at 30° C. for 60 minutes. Then, Fluor de Lys®-Developer II (BML-KI176) was added thereto and allowed to react for 30 minutes, after which the fluorescence value (Ex 360, Em 460) was measured using a multi-plate reader (Flexstation 3, Molecular Device). The HDAC6 enzyme was tested using human recombinant HDAC6 (382180) (Calbiochem) according to the same protocol as the HDAC1 enzyme activity test method. Based on the resulting values, each IC5, value was calculated using GraphPad Prism4.0 program.

Structure (SMILES)	HDAC6 selectivity (fold)	IC50 [nM]
CN1CCN(C(=O)N(Cc2ccc(-c3nnc(C(F)F)o3)cc2F)c2ccccc2)CC1 [Compound 21378, N-(4-(5-(difluoromethyl)-1,3,4-oxadiazol-2-yl)-2-fluorobenzyl)-4-methyl-N-phenylpiperazine-1-carboxamide]	500	20
CN1CCCN(C(=O)N(Cc2ccc(-c3nnc(C(F)(F)F)o3)cc2)c2ccccc2)CC1 [Compound 21379, 4-Methyl-N-phenyl-N-(4-(5-(trifluoromethyl)-1,3,4-oxadiazol-2-yl)benzyl)-1,4-diazepane-1-carboxamide]	132	76
C[C@@H]1CN(C(=O)N(Cc2ccc(-c3nnc(C(F)(F)F)o3)cc2)c2ccccc2)C[C@H](C)O1 [Compound 21380, (2S,6R)-2,6-Dimethyl-N-phenyl-N-(4-(5-(trifluoromethyl)-1,3,4-oxadiazol-2-yl)benzyl) morpholine-4-carboxamide]	61	165
CC(C)(C)N1CCN(C(=O)N(Cc2ccc(-c3nnc(C(F)(F)F)o3)cc2)c2ccccc2)CC1 [Compound 21381, 4-(Tert-butyl)-N-phenyl-N-(4-(5-(trifluoromethyl)-1,3,4-oxadiazol-2-yl)benzyl)piperazine-1-carboxamide]	76	132
CC(C)(C)N1CCN(C(=O)N(Cc2ccc(-c3nnc(C(F)(F)F)o3)cc2F)c2ccccc2)CC1 [Compound 21382, 4-(Tert-butyl)-N-(2-fluoro-4-(5-(trifluoromethyl)-1,3,4-oxadiazol-2-yl)benzyl)-N-phenylpiperazine-1-carboxamide]	127	79
CC(C)(C)N1CCN(C(=O)N(Cc2ccc(-c3nnc(C(F)F)o3)cc2F)c2ccccc2)CC1 [Compound 21383, 4-(Tert-butyl)-N-(4-(5-(difluoromethyl)-1,3,4-oxadiazol-2-yl)-2-fluorobenzyl)-N-phenylpiperazine-1-carboxamide]	200	50
O=C(N1CCN(CCO)CC1)N(Cc1ccc(-c2nnc(C(F)(F)F)o2)cc1)c1ccccc1 [Compound 21384, 4-(2-Hydroxyethyl)-N-phenyl-N-(4-(5-(trifluoromethyl)-1,3,4-oxadiazol-2-yl)benzyl)piperazine-1-carboxamide]	127	79
C[C@@H]1CN(C(=O)N(Cc2ccc(-c3nnc(C(F)(F)F)o3)cc2)c2ccccc2)C[C@H](C)N1 [Compound 21385, (3S,5R)-3,5-Dimethyl-N-phenyl-N-(4-(5-(trifluoromethyl)-1,3,4-oxadiazol-2-yl)benzyl)piperazine-1-carboxamide]	175	57
C[C@@H]1CN(C(=O)N(Cc2ccc(-c3nnc(C(F)(F)F)o3)cc2)c2ccccc2)C[C@H](C)N1C [Compound 21386, (3R,5S)-3,4,5-Trimethyl-N-phenyl-N-(4-(5-(trifluoromethyl)-1,3,4-oxadiazol-2-yl)benzyl)piperazine-1-carboxamide]	213	47
CC(=O)N1[C@H](C)CN(C(=O)N(Cc2ccc(-c3nnc(C(F)(F)F)o3)cc2)c2ccccc2)C[C@@H]1C [Compound 21387, (3R,5S)-4-Acetyl-3,5-dimethyl-N-phenyl-N-(4-(5-(trifluoromethyl)-1,3,4-oxadiazol-2-yl)benzyl)piperazine-1-carboxamide]	41	241
C[C@@H]1CN(C(=O)N(Cc2ccc(-c3nnc(C(F)(F)F)o3)cc2)c2ccccc2)C[C@H](C)N1S(C)(=O)=O [Compound 21388, (3R,5S)-3,5-Dimethyl-4-(methylsulfonyl)-N-phenyl-N-(4-(5-(trifluoromethyl)-1,3,4-oxadiazol-2-yl)benzyl)piperazine-1-carboxamide]	42	240
O=C(N1CCS(=O)(=O)CC1)N(Cc1ccc(-c2nnc(C(F)(F)F)o2)cc1)c1cccc(C(F)(F)F)c1 [Compound 21391, N-(4-(5-(trifluoromethyl)-1,3,4-oxadiazol-2-yl)benzyl)-N-(3-(trifluoromethyl)phenyl)thiomorpholine-4-carboxamide 1,1-dioxide]	27	366

Continued, values first:

HDAC6 selectivity (fold)	IC50 [nM]	Structure (SMILES)
65	153	O=C(N1CCS(=O)(=O)CC1)N(Cc1ccc(-c2nnc(C(F)(F)F)o2)cc1)c1cccc(F)c1 [Compound 21392, N-(3-fluorophenyl)-N-(4-(5-(trifluoromethyl)-1,3,4-oxadiazol-2-yl)benzyl)thiomorpholine-4-carboxamide 1,1-dioxide]
56	177	O=C(N1CCS(=O)(=O)CC1)N(Cc1ccc(-c2nnc(C(F)(F)F)o2)cc1)c1ccc(Cl)cc1 [Compound 21394, N-(4-chlorophenyl)-N-(4-(5-(trifluoromethyl)-1,3,4-oxadiazol-2-yl)benzyl)thiomorpholine-4-carboxamide 1,1-dioxide]
137	73	O=C(N1CCS(=O)(=O)CC1)N(Cc1ccc(-c2nnc(C(F)(F)F)o2)cc1)c1cccc(Cl)c1 [Compound 21395, N-(3-chlorophenyl)-N-(4-(5-(trifluoromethyl)-1,3,4-oxadiazol-2-yl)benzyl)thiomorpholine-4-carboxamide 1,1-dioxide]
34	292	CC(C)(O)CN1CCN(C(=O)N(Cc2ccc(-c3nnc(C(F)(F)F)o3)cc2)c2ccccc2)CC1 [Compound 21396, 4-(2-hydroxy-2-methylpropyl)-N-phenyl-N-(4-(5-(trifluoromethyl)-1,3,4-oxadiazol-2-yl)benzyl)piperazine-1-carboxamide]
11	882	CC(C)N(Cc1ccc(-c2nnc(C(F)(F)F)o2)cc1)C(=O)N1CCS(=O)(=O)CC1 [Compound 21397, N-isopropyl-N-(4-(5-(trifluoromethyl)-1,3,4-oxadiazol-2-yl)benzyl)thiomorpholine-4-carboxamide 1,1-dioxide]
12	849	CN(Cc1ccc(-c2nnc(C(F)(F)F)o2)cc1)C(=O)N1CCOCC1 [Compound 21398, N-methyl-N-(4-(5-(trifluoromethyl)-1,3,4-oxadiazol-2-yl)benzyl)morpholine-4-carboxamide]
13	780	CCN(Cc1ccc(-c2nnc(C(F)(F)F)o2)cc1)C(=O)N1CCOCC1 [Compound 21399, N-ethyl-N-(4-(5-(trifluoromethyl)-1,3,4-oxadiazol-2-yl)benzyl)morpholine-4-carboxamide]
17	582	CCCN(Cc1ccc(-c2nnc(C(F)(F)F)o2)cc1)C(=O)N1CCOCC1 [Compound 21400, N-propyl-N-(4-(5-(trifluoromethyl)-1,3,4-oxadiazol-2-yl)benzyl)morpholine-4-carboxamide]
20	497	CCCCN(Cc1ccc(-c2nnc(C(F)(F)F)o2)cc1)C(=O)N1CCOCC1 [Compound 21401, N-butyl-N-(4-(5-(trifluoromethyl)-1,3,4-oxadiazol-2-yl)benzyl)morpholine-4-carboxamide]
45	222	CCCN(C)C(=O)N(Cc1ccc(-c2nnc(C(F)(F)F)o2)cc1)c1ccccc1 [Compound 21402, 1-Methyl-3-phenyl-1-propyl-3-(4-(5-(trifluoromethyl)-1,3,4-oxadiazol-2-yl)benzyl)urea]
